# Experimental data taken from ChEMBL document CHEMBL4739718, “Substituted 5-cyclopropyl-1h-pyrazol-3-yl-amine derivatives as selective cdk12/13 inhibitors” (2020).
# Tests used:
# [1] = molecular target: T1, Cyclin-dependent kinase 7 (Homo sapiens, UniProt P50613); test: Inhibition of CDK7 (unknown origin) assessed as reduction in ATP-dependent phosphorylation of ULight-myelin basic protein substrate peptide incubated for 60 mins by LANCE TR-FRET assay
# [2] = molecular target: Cyclin-dependent kinase 12 (Homo sapiens) (UniProt Q9NYV4); test: Binding affinity to CDK12 in human Jurkat cells assessed as target occupancy level incubated for 2 hrs by measuring Bio-THZ531 bound protein level by spectrophotometry based plate based target engagement assay; assay type: cell-based
# [3] = molecular target: T1, Cyclin-dependent kinase 7; test: Binding affinity to CDK7 in human Jurkat cells assessed as target occupancy level incubated for 2 hrs by measuring Bio-THZ531 bound protein level by spectrophotometry based plate based target engagement assay; assay type: cell-based
# T1 sequence (P50613 whole entry): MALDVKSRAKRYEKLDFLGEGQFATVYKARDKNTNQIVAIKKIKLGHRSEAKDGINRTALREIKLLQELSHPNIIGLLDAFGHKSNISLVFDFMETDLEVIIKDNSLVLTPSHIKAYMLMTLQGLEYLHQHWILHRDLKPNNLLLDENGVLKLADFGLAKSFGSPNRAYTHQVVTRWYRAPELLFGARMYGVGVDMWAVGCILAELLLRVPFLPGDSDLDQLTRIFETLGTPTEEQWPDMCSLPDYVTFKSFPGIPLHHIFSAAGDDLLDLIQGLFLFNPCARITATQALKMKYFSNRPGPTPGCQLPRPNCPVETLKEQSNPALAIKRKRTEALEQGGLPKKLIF
# Sequence of Cyclin-dependent kinase 12 (Homo sapiens) (Q9NYV4 whole entry, looked up): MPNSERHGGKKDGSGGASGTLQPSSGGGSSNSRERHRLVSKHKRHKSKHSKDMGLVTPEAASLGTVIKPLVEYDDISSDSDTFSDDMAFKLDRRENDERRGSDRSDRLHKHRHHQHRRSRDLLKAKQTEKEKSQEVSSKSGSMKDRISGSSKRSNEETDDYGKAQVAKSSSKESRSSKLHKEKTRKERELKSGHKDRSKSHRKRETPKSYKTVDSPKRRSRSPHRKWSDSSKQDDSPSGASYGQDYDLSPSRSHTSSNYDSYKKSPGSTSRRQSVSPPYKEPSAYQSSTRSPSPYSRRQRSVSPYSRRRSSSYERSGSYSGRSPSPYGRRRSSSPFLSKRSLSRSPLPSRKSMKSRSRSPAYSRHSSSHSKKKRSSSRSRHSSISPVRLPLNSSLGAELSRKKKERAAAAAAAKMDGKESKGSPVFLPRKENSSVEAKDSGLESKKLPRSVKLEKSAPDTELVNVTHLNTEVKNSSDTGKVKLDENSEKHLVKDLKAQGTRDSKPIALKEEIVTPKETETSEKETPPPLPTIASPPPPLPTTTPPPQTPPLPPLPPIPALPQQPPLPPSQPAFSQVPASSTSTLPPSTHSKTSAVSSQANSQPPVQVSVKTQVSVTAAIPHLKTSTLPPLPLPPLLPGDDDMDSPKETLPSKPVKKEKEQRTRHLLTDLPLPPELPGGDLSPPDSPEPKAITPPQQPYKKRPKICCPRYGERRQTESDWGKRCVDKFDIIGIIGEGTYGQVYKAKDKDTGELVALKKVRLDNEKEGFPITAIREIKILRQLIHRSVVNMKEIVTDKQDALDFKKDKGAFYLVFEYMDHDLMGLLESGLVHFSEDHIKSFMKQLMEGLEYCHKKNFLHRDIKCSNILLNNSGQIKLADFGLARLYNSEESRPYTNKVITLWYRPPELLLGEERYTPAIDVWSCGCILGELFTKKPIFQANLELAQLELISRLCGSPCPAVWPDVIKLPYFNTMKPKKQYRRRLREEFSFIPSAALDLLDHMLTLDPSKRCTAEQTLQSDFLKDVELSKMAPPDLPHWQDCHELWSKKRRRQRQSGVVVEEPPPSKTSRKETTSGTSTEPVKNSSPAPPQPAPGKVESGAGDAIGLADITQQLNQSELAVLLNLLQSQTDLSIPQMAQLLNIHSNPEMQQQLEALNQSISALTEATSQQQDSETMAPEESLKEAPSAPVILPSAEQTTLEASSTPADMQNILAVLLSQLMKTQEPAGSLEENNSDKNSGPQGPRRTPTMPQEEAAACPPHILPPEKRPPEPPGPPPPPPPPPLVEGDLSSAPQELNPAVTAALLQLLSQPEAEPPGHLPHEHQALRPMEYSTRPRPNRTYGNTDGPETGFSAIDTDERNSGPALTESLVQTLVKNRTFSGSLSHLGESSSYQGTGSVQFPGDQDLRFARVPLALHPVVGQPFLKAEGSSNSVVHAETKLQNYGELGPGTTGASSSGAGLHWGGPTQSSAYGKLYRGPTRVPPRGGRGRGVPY
IC50 [1] [µM],Occ50 [2] [µM],Occ50 [3] [µM],SMILES
> 10,,,CC(C(=O)Nc1cc(C2CC2)[nH]n1)c1ccc(-c2ccc(NC(=O)/C=C/CN3CCOCC3)cc2)cc1 (stereo in doubt; 12)
,0.022,> 2,C=CC(=O)NCc1ccc(-c2ccc([C@H](C)C(=O)Nc3cc(C4CC4)[nH]n3)cc2)cn1
> 10,,,C=CC(=O)NCc1ccc(-c2ccc(C(C)C(=O)Nc3cc(C4CC4)[nH]n3)cn2)cn1 (stereo unspecified)
,0.23,0.61,C=CC(=O)NCc1ccc(-c2ccc(C(C)C(=O)Nc3cc(C4CC4)[nH]n3)cc2)cn1 (stereo unspecified)
